In PubChem BioAssay (NCI):
“And” between values parts separate entries of the source, which are not always exact repeats. Equal entries are not always repeated.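 All cell lines were grown in 96-well plates and treated with compound for 48 hours. Abbreviation: GI50, concentration required for 50% inhibition of growth. TGI marks complete inhibition of growth.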

Experiments:
Experiment in all cases: DTP human tumour cell line panel, 48 h
BT-549 breast = system: BT-549 breast
COLO 205 colon = system: COLO 205 colon
HCT-15 colon = system: HCT-15 colon
IGROV1 ovarian = system: IGROV1 ovarian
K-562 leukemia = system: K-562 leukemia
NCI-H522 lung = system: NCI-H522 lung
SK-MEL-2 melanoma = system: SK-MEL-2 melanoma
SK-MEL-5 melanoma = system: SK-MEL-5 melanoma
ACHN renal = system: ACHN renal
CCRF-CEM leukemia = system: CCRF-CEM leukemia

## CC#CC#C/C(=C/C=CC(=O)OC)SC
BT-549 breast
  TGI: > 100 µM
COLO 205 colon
  TGI: > 100 µM
HCT-15 colon
  TGI: > 100 µM
IGROV1 ovarian
  TGI: > 100 µM
K-562 leukemia
  TGI: > 100 µM
NCI-H522 lung
  TGI: > 100 µM
SK-MEL-2 melanoma
  TGI: > 100 µM
SK-MEL-5 melanoma
  TGI: > 100 µM

## N#Cc1cccc(C2C(=O)c3ccc(C(=O)c4ccc5c(c4)C(=O)N(c4ccc(Oc6ccc(N7C(=O)c8ccc(C(=O)c9ccc%10c(c9)C(=O)N(c9cccc(C#N)c9)C%10=O)cc8C7=O)cc6)cc4)C5=O)cc3C2=O)c1 (configuration not stated)
ACHN renal
  TGI: > 100 µM
CCRF-CEM leukemia
  TGI: > 100 µM
COLO 205 colon
  TGI: > 100 µM
HCT-15 colon
  TGI: > 100 µM
IGROV1 ovarian
  TGI: > 100 µM
K-562 leukemia
  TGI: > 100 µM
NCI-H522 lung
  TGI: > 100 µM
SK-MEL-2 melanoma
  TGI: > 100 µM
SK-MEL-5 melanoma
  TGI: > 100 µM

## COc1ccc([C@@H]2OC(=O)C3C2C(=O)O[C@H]3c2ccc(OC)cc2)cc1 (some centres not stated)
ACHN renal
  TGI: > 100 µM
CCRF-CEM leukemia
  TGI: > 100 µM
COLO 205 colon
  TGI: > 100 µM
HCT-15 colon
  TGI: > 100 µM
IGROV1 ovarian
  TGI: > 100 µM
K-562 leukemia
  TGI: > 100 µM
SK-MEL-2 melanoma
  TGI: > 100 µM

## COc1ccc(/C=C/C(=O)/C=C(O)/C=C/c2ccc(OC)c(OC)c2)cc1OC
ACHN renal
  GI50: 6.97 µM
  TGI: > 100 µM
CCRF-CEM leukemia
  GI50: 3.66 µM
  TGI: > 100 µM
COLO 205 colon
  GI50: 34.4 µM
  TGI: > 100 µM
HCT-15 colon
  GI50: 3.76 µM
  TGI: > 100 µM
IGROV1 ovarian
  GI50: 3.43 µM
  TGI: > 100 µM
K-562 leukemia
  GI50: 1.16 µM
  TGI: > 100 µM
NCI-H522 lung
  GI50: 2.52 µM
  TGI: 7.53 µM
SK-MEL-2 melanoma
  GI50: 13.8 µM
  TGI: 63.1 µM
SK-MEL-5 melanoma
  GI50: 3.01 µM
  TGI: 12.7 µM

## CCCCCCCCCC[C@H](O)[C@H]1CC[C@@H]([C@@H](O)CC[C@H](O)[C@@H]2CCC(CCCCCCC[C@@H](O)CC3=C[C@H](C)OC3=O)O2)O1 (some centres not stated)
ACHN renal
  GI50: 2.15 µM
  TGI: 4.47 µM and 15.7 µM
CCRF-CEM leukemia
  GI50: 2.08 µM
  TGI: 12.3 µM
COLO 205 colon
  TGI: 4.38 µM and 6 µM
HCT-15 colon
  GI50: 7.02 µM
  TGI: 30.8 µM
IGROV1 ovarian
  GI50: 5.17 µM
  TGI: 4.99 µM and 21.1 µM
K-562 leukemia
  TGI: 19.2 µM
NCI-H522 lung
  TGI: 18 µM
SK-MEL-2 melanoma
  GI50: 8.82 µM
  TGI: 2.94 µM and 24.6 µM
SK-MEL-5 melanoma
  TGI: 3.48 µM and 3.24 µM

## CSC1=Nc2ccccc2N=C(c2ccccc2)C1
ACHN renal
  TGI: > 100 µM
CCRF-CEM leukemia
  TGI: 58.9 µM
COLO 205 colon
  TGI: 51.8 µM
HCT-15 colon
  TGI: > 100 µM
IGROV1 ovarian
  TGI: > 100 µM
K-562 leukemia
  TGI: > 100 µM
NCI-H522 lung
  TGI: > 100 µM
SK-MEL-2 melanoma
  TGI: > 100 µM
SK-MEL-5 melanoma
  TGI: > 100 µM

## CN(C)CCCCNc1ccc(NCCCCN(C)C)c2c1C(=O)c1c(O)ccc(O)c1C2=O
ACHN renal
  GI50: 1.61 µM
  TGI: 2.96 µM
BT-549 breast
  GI50: 16 µM
  TGI: 29.5 µM
COLO 205 colon
  GI50: 13.6 µM
  TGI: 28.6 µM
HCT-15 colon
  GI50: 1.55 µM
  TGI: 2.93 µM
IGROV1 ovarian
  GI50: 1.52 µM
  TGI: 3.03 µM
NCI-H522 lung
  GI50: 1.77 µM
  TGI: 3.58 µM
SK-MEL-2 melanoma
  GI50: 18 µM
  TGI: 32.5 µM
SK-MEL-5 melanoma
  GI50: 13.5 µM
  TGI: 26.3 µM

## CC1=C(C(=O)Nc2ccc(C)cc2)C(c2cccc([N+](=O)[O-])c2)C(C(=O)Nc2ccc(C)cc2)=C(C)N1
ACHN renal
  TGI: 80.8 µM
CCRF-CEM leukemia
  TGI: 50.7 µM
COLO 205 colon
  TGI: 28.1 µM
HCT-15 colon
  TGI: > 100 µM
IGROV1 ovarian
  TGI: 66.8 µM
K-562 leukemia
  TGI: 63.5 µM
NCI-H522 lung
  TGI: 93.8 µM
SK-MEL-2 melanoma
  TGI: 54.8 µM
SK-MEL-5 melanoma
  TGI: 44.3 µM

## CC[As](CC)SCC1OC(OC(C)=O)C(OC(C)=O)C(OC(C)=O)C1OC(C)=O (configuration not stated)
ACHN renal
  TGI: 31.5 µM
CCRF-CEM leukemia
  TGI: 18.4 µM
COLO 205 colon
  TGI: 10 µM
HCT-15 colon
  TGI: 26.4 µM
IGROV1 ovarian
  TGI: 33.8 µM
K-562 leukemia
  TGI: 14 µM
NCI-H522 lung
  TGI: 3.2 µM
SK-MEL-2 melanoma
  TGI: 26.2 µM
SK-MEL-5 melanoma
  TGI: 28.4 µM

## CCN(CC)CC(O)c1cc(-c2ccc(Cl)cc2)nc2c(C)c(Cl)ccc12 (configuration not stated)
ACHN renal
  GI50: 1.63 µM
  TGI: 3.03 µM
BT-549 breast
  GI50: 2.27 µM
  TGI: 4.49 µM
CCRF-CEM leukemia
  GI50: 2.21 µM
  TGI: 5.03 µM
COLO 205 colon
  GI50: 1.77 µM
  TGI: 3.35 µM
IGROV1 ovarian
  GI50: 1 µM
  TGI: 2.36 µM
K-562 leukemia
  GI50: 1.66 µM
  TGI: 4.26 µM
NCI-H522 lung
  GI50: 1.85 µM
  TGI: 3.29 µM
SK-MEL-2 melanoma
  GI50: 2.1 µM
  TGI: 3.61 µM
SK-MEL-5 melanoma
  GI50: 1.7 µM
  TGI: 3.11 µM

## O=C1c2ccc3c4c(ccc(c24)C(=O)N1CCNCc1ccccc1)C(=O)N(CCNCc1ccccc1)C3=O
ACHN renal
  GI50: 3.19 µM
  TGI: 13.5 µM
BT-549 breast
  GI50: 2.45 µM
  TGI: 6.19 µM
CCRF-CEM leukemia
  GI50: 2.51 µM
  TGI: > 100 µM
COLO 205 colon
  GI50: 1.65 µM
  TGI: 3.01 µM
HCT-15 colon
  GI50: 1.43 µM
  TGI: 2.92 µM
IGROV1 ovarian
  GI50: 1.72 µM
  TGI: 4.27 µM
K-562 leukemia
  GI50: 0.365 µM
  TGI: > 100 µM
SK-MEL-2 melanoma
  GI50: 2.23 µM
  TGI: 5.81 µM
SK-MEL-5 melanoma
  GI50: 1.39 µM
  TGI: 2.68 µM

## COc1ccc2nc3ccccc3c(NCCN(CCCl)CCCl)c2c1
ACHN renal
  TGI: 2.53 µM
CCRF-CEM leukemia
  TGI: 2.39 µM
IGROV1 ovarian
  TGI: 4.34 µM
K-562 leukemia
  TGI: 4.92 µM
NCI-H522 lung
  TGI: 1.75 µM

## CC(=O)O[C@@H]1CC[C@@]2(C)C(=O)C34C[C@@]5(C)C([C@@H](C)CCCC(C)C)CCC5(C)[C@](O)(O3)C(=O)[C@H]4C2C1(C)C (some centres not stated)
ACHN renal
  TGI: 27 µM
CCRF-CEM leukemia
  TGI: 19.8 µM
COLO 205 colon
  TGI: 27.8 µM
HCT-15 colon
  TGI: 26.5 µM
IGROV1 ovarian
  TGI: 31.6 µM
K-562 leukemia
  TGI: 29.9 µM
NCI-H522 lung
  TGI: 25.5 µM
SK-MEL-2 melanoma
  TGI: 37 µM
SK-MEL-5 melanoma
  TGI: 28.4 µM

## Cc1cc(Cl)cc2c1NC(=O)C2(O)C(C(=O)c1ccccc1)c1ccccc1 (configuration not stated)
ACHN renal
  GI50: 43 µM and 18.8 µM
  TGI: > 100 µM and 40.6 µM
CCRF-CEM leukemia
  TGI: 81.5 µM
COLO 205 colon
  GI50: > 100 µM and 15.2 µM
  TGI: > 100 µM and 30 µM
HCT-15 colon
  TGI: > 100 µM
IGROV1 ovarian
  TGI: 83 µM
K-562 leukemia
  TGI: > 100 µM
NCI-H522 lung
  TGI: > 100 µM
SK-MEL-2 melanoma
  TGI: > 100 µM
SK-MEL-5 melanoma
  TGI: 45.4 µM

## CC1(C)C(CC(=O)O)CCCC1CC(=O)O (configuration not stated)
ACHN renal
  TGI: > 100 µM
BT-549 breast
  TGI: > 100 µM
CCRF-CEM leukemia
  TGI: > 100 µM
COLO 205 colon
  TGI: > 100 µM
HCT-15 colon
  TGI: > 100 µM
IGROV1 ovarian
  TGI: > 100 µM
K-562 leukemia
  TGI: > 100 µM
SK-MEL-2 melanoma
  TGI: > 100 µM
SK-MEL-5 melanoma
  TGI: > 100 µM

## CCN(CC)C(=O)CC12CCCCC1=Nc1ccccc12 (configuration not stated)
ACHN renal
  TGI: > 100 µM
CCRF-CEM leukemia
  TGI: > 100 µM
COLO 205 colon
  TGI: > 100 µM
HCT-15 colon
  TGI: > 100 µM
IGROV1 ovarian
  TGI: > 100 µM
K-562 leukemia
  TGI: > 100 µM
SK-MEL-2 melanoma
  TGI: > 100 µM
SK-MEL-5 melanoma
  TGI: > 100 µM

## COC(=O)c1cccc(NC(=O)c2ccc(NC3=C(Cl)C(=O)N(Cc4ccccc4)C3=O)cc2)c1
BT-549 breast
  GI50: 15.3 µM
  TGI: 31.9 µM
COLO 205 colon
  GI50: 21.4 µM
  TGI: > 100 µM
HCT-15 colon
  GI50: 2.29 µM
  TGI: 17.5 µM
IGROV1 ovarian
  GI50: 0.176 µM
  TGI: 3.34 µM
K-562 leukemia
  GI50: 21.3 µM
  TGI: 52.7 µM
NCI-H522 lung
  GI50: 7.52 µM
  TGI: 32.8 µM
SK-MEL-2 melanoma
  GI50: 14.5 µM
  TGI: 44.2 µM
SK-MEL-5 melanoma
  GI50: 16.5 µM
  TGI: 34 µM

## CN(C)c1ccc(/C=c2/c3cc(O)ccc3n3c2cc(-c2ccccc2)[n+]3C)cc1
ACHN renal
  GI50: 4.78 µM
  TGI: > 100 µM
CCRF-CEM leukemia
  TGI: 4.1 µM
HCT-15 colon
  TGI: > 100 µM
IGROV1 ovarian
  TGI: 1.47 µM
K-562 leukemia
  GI50: 1.01 µM
NCI-H522 lung
  TGI: 1.75 µM
SK-MEL-2 melanoma
  TGI: 2.55 µM
SK-MEL-5 melanoma
  TGI: 2.04 µM
